# Test results from patent US20230405002A1, “COMBINATIONS OF DIACYLGLYCEROL ACYLTRANSFERASE 2 INHIBITORS AND ACETYL-COA CARBOXYLASE INHIBITOR” (Pfizer Inc., priority 2020, published 2023).
# Legend:
# human DGAT2 (hDGAT2) = human DGAT2 (hDGAT2) (Homo sapiens (Human), UniProt Q96PD7); assay: In vitro DGAT2 assay, determination of IC50 values; type: biochemical; details: geometric mean; hDGAT2 membrane fraction
# [1] = tested on: Western diet fed Sprague-Dawley rats; assay: In vivo effects of DGAT2 inhibitors on plasma and hepatic triglyceride levels (rat western diet model); details: oral 3, 10, 30, 100 mg/kg BID 7 days; dose dependent; vs western diet vehicle
# Excerpt: The rat western diet model was utilized to assess the effects of DGAT2 inhibitor treatment on plasma triglyceride production and hepatic triglyceride content in vivo. Male Sprague-Dawley rats were housed under standard laboratory conditions on a 12-hour light, 12-hour dark cycle (lights on at 06:00). Two weeks prior to study start animals were placed on a high-fat, high sucrose, high-cholesterol diet (D12079b, provided by Research Diets, New Brunswick, NJ). This diet provides ˜43% of kilocalories from carbohydrate and ˜41% of kilocalories from fat. Example 4 was administered orally as a solution (10 mL/kg dosing volume) in 0.5% methylcellulose in deionized water, pH 7.0-7.5 (methylcellulose was obtained from Sigma-Aldrich, St. Louis, MO). […] Plasma TG levels were determined using a Roche Hitachi Chemistry analyzer according to the manufacturer's instructions (Roche Diagnostics Corporation, Indianapolis, IN) and data was analyzed using GraphPad Prism (GraphPad Software, Inc., La Jolla, CA). […] The triglyceride assay was performed through absorbance and reported as milligrams per deciliter. […]
# FIG. 29 plots the multiple dose effects of Example 4 on Plasma Triglyceride in Western Diet Fed Sprague-Dawley Rats where plasma triglyceride levels were determined from blood drawn from the lateral tail vein 2-hours following the final dose of Example 4. […]
# [2] = Thermodynamic solubility in various media; type: physicochemical
# Method: The solubility of active pharmaceutical ingredients is an important characteristic in determining biological performance and ease of formulation during drug development, with high solubility being preferred (Klein, S. 2010, The AAPS Journal, 12, 397-406; Di, L., et al 2012, Drug Disc. Today, 17. 486-495). A test sample of crystalline solid (˜7 mg) was combined in a vial with 1 mL of the relevant buffer solution and the mixture vortexed to combine. If the solid dissolved completely, additional solid was added with vortexing until a saturated solution was obtained. The saturated solution/solid mixture was capped and subjected to temperature cycling as follows: 1 min at 25° C.; 8 h at 40° C.; 5 h at 15° C. and 12 h at 25° C. The mixture was filtered in a centrifugal filtration device (0.22 μm PVDF filter, MilliporeSigma, Milwaukee, WI) at 13,000 rpm and the concentration of the test compound in the filtrate was determined by HPLC/UPLC with reference to a three point standard curve. Phosphate buffered saline (PBS, pH 6.8, 50 mM phosphate buffer, 250 mM NaCl). Simulated gastric fluid (SGN pH 1.2, USP recipe). […]
# [3] = target: DGAT2 in human hepatocytes (Homo sapiens (Human), UniProt Q96PD7); assay: Determination of IC50 values for DGAT2 inhibitors in human hepatocytes; type: cell-based; details: geometric mean; cryopreserved human hepatocytes, DGAT1 inhibitor 3 μM present
# Method: For evaluation of the effects of DGAT2 inhibitors in a cell-based setting, cryopreserved human hepatocytes (Lot DOO, Celsis, Baltimore, MD) were thawed and plated onto type I collagen-coated plates according to the manufacturer's instructions. After 18 hours overnight recovery period, the cells were overlayed with media containing 250 μg/mL Geltrex Basement Membrane Matrix (Thermo Fisher). The following day, media was aspirated and replaced with serum-free Williams Media E (Thermo Fisher) containing 400 μM sodium dodecanoate (Sigma-Aldrich, St. Louis, MO) and 2 mM GlutaMAX (Thermo Fisher). […] DGAT2 inhibitors were then added to the desired final concentration. After a 15 minute preincubation, 0.2 μCi [^14C(U)]-glycerol (Perkin Elmer) was added to each well followed by a 3 hour incubation. At this point the media was removed, and the cells lysed via orbital shaking in isopropyl alcohol: tetrahydrofuran (9:1) for 15 minutes prior to centrifugation at 3000 rpm for 10 minutes. Radiolabeled lipids were resolved using a solvent system by thin layer chromatography with the solvent consisting of hexanes: diethyl ether: glacial acetic acid (75:23:2, v/v/v). After separation, radiolabeled lipids were visualized using the Typhoon 9500 phosphorimaging system (GE). The half maximal inhibitory concentrations (IC50 values) were determined by nonlinear regression analysis of the % inhibition dose response curve using GraphPad Prism (GraphPad Software, Inc., La Jolla, CA).
# Table 12 below provides the IC50 values of selected Examples for inhibition of DGAT2 in human hepatocytes in accordance with the above-described assay. Results are reported as geometric mean IC50 values, with the number of replicates (n) shown.
# Chain of DGAT2 in human hepatocytes (Q96PD7 whole entry): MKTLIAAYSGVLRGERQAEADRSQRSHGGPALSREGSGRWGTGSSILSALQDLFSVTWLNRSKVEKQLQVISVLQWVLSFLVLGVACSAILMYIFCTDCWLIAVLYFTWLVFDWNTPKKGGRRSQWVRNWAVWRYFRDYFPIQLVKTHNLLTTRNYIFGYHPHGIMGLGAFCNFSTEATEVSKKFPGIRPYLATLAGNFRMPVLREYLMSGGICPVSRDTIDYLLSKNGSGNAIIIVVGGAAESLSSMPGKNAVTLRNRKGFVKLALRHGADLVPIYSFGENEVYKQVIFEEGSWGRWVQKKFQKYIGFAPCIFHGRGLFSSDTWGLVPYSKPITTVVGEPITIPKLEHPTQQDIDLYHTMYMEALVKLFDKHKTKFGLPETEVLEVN
# Chain of human DGAT2 (hDGAT2) (Q96PD7 whole entry): as above
structure (smiles),measurement,setting,value
"CCOc1cccnc1Oc1cncc(-c2ncc(C(=O)N[C@@H]3CNC[C@@H](F)C3)cn2)c1 [Example 4, 2-{5-[(3-Ethoxypyridin-2-yl)oxy]pyridin-3-yl}-N-[(3S,5S)-5-fluoropiperidin-3-yl]pyrimidine-5-carboxamide]",IC50,human DGAT2 (hDGAT2),10 nM
same,reduction in liver triglycerides,[1],up to 48%
same,reduction in plasma triglycerides,[1],≤ 70%
same,solubility at 25 h,"[2]; FaSSIF (as printed, 25 °C, thermodynamic from solid), FaSSIF pH 6.8 (second line so printed; method also names FeSSIF)",1210 µg/mL
same,solubility at 25 h,"[2]; fasted state simulated intestinal fluid (FaSSIF), 25 °C, thermodynamic from solid, FaSSIF pH 6.8 (first line)",700 µg/mL
same,IC50,[3],11 nM
